Measurements from patent US20240050428A1 (Cullgen (Shanghai), Inc., priority 2020, published 2024).
pIC50: −log10 of the molar value. Where two headings read alike, the source gives them in different places.

What was measured:
Type in all cases: cell-based
MV4;11 cells = test: Cell viability assay (CellTiter-Glo) in MV4;11 cells, alone or with gilteritinib; conditions: Homo sapiens, MV4-11, 72 h, MV4;11 cells, CellTiter-Glo, read-out: MV4
MOLM-13 cells [1] = test: Cell viability assay (CellTiter-Glo) in MOLM-13 cells, alone or with gilteritinib; conditions: MOLM-13 cells; for pIC50: Homo sapiens, MOLM-13, 72 h, CellTiter-Glo; for Sensitivity of FLT3-mutant AML cells to GSPT1 degrader upon FLT3 inhibition: with or without 20 nM gilteritinib, 3 days (FIG. 2A-2C)
MOLM-13 cells [2] = test: Cell viability / cell growth inhibition of MOLM-13 cells, GSPT1 degrader with or without gilteritinib; conditions: combined with FLT3 inhibitor gilteritinib (20 nM in FIG. 2A-2C)
Description: FIG. 2A is a graph of cell viability in MOML-13 cells treated with varying doses of GS-002, with or without gilteritinib at 20 nM.
FIG. 2B is a graph of cell viability in MOML-13 cells treated with varying doses of GS-005, with or without gilteritinib at 20 nM.
FIG. 2C is a graph of cell viability in MOML-13 cells treated with varying doses of GS-006, with or without gilteritinib at 20 nM.
When combined with FLT3 inhibitor gilteritinib, the potency of some of the compounds was increased synergistically.

[3] = with 10 nM gilteritinib, 3 days, 11 IC50 gilteritinib
[4] = without gilteritinib, 3 days, 11 IC50
[5] = with 20 nM gilteritinib, 3 days, read-out: MOLM-13 IC50 gilteritinib
[6] = without gilteritinib, 3 days, read-out: MOLM-13 IC50
[7] = compound alone (without gilteritinib), three days, 11 IC50
[8] = compound with gilteritinib 10 nM, three days, 11 IC50 gilteritinib
[9] = compound alone (without gilteritinib), three days, read-out: MOLM-13 IC50
[10] = compound with gilteritinib 20 nM, three days, read-out: MOLM-13 IC50 gilteritinib

Row | Compound | pIC50 (MV4;11 cells; [3]) | pIC50 (MV4;11 cells; [4]) | pIC50 (MOLM-13 cells [1]; [5]) | pIC50 (MOLM-13 cells [1]; [6]) | pIC50 (MV4;11 cells; [7]) | pIC50 (MV4;11 cells; [8]) | pIC50 (MOLM-13 cells [1]; [9]) | pIC50 (MOLM-13 cells [1]; [10]) | Sensitivity of FLT3-mutant AML cells to GSPT1 degrader upon FLT3 inhibition (MOLM-13 cells [1]) | potency combined with gilteritinib, cell growth inhibition (MOLM-13 cells [2])
1 | O=C1CCC(N2C(=O)c3ccc(NCCCCCC(=O)N4CCC(n5cc(-c6cnc7cccc(Br)c7n6)cn5)CC4)cc3C2=O)C(=O)N1 (centres unmarked) [GS-002, 5-((6-(4-(4-(8-bromoquinoxalin-2-yl)-1H-pyrazol-1-yl)piperidin-1-yl)-6-oxohexyl)amino)-2-(2,6-dioxopiperidin-3-yl)isoindoline-1,3-dione] | 8.52 | 6.64 | 8.72 | 6.23 |  |  |  |  | remarkably increases sensitivity | significantly improved
2 | O=C1CCC(N2C(=O)c3ccc(NCCCCCC(=O)N4CCC(n5cc(-c6cnc7ccccc7n6)cn5)CC4)cc3C2=O)C(=O)N1 (centres unmarked) [GS-005, 2-(2,6-dioxopiperidin-3-yl)-5-((6-oxo-6-(4-(4-(quinoxalin-2-yl)-1H-pyrazol-1-yl)piperidin-1-yl)hexyl)amino)isoindoline-1,3-dione] | 8.74 | 8.22 | 9.70 | 7.93 |  |  |  |  | remarkably increases sensitivity | significantly improved
3 | O=C1CCC(N2C(=O)c3ccc(NCCCCCC(=O)N4CCC(n5cc(-c6ccc7ccccc7n6)cn5)CC4)cc3C2=O)C(=O)N1 (centres unmarked) [GS-006, 2-(2,6-dioxopiperidin-3-yl)-5-((6-oxo-6-(4-(4-(quinolin-2-yl)-1H-pyrazol-1-yl)piperidin-1-yl)hexyl)amino)isoindoline-1,3-dione] | 8.34 | 7.92 | 9.52 | 7.54 |  |  |  |  | remarkably increases sensitivity | significantly improved
4 | O=C1CCC(N2C(=O)c3ccc(NC[C@H]4C[C@H](n5cc(C6CCCC6)c(C6CC6)n5)C4)cc3C2=O)C(=O)N1 (stereo partly drawn) [GS-631, 5-(((trans-3-(4-Cyclopentyl-3-cyclopropyl-1H-pyrazol-1-yl)cyclobutyl)methyl)amino)-2-(2,6-dioxopiperidin-3-yl)isoindoline-1,3-dione] |  |  |  |  | 6.00 to 7.00 | 7.00 to 8.00 | 6.00 to 7.00 | 7.00 to 8.00 |  | 
5 | CC1CCCCC1c1cn([C@H]2C[C@H](CNc3ccc4c(c3)C(=O)N(C3CCC(=O)NC3=O)C4=O)C2)nc1C1CC1 (stereo partly drawn) [GS-633, 5-(((trans-3-(3-Cyclopropyl-4-(2-methylcyclohexyl)-1H-pyrazol-1-yl)cyclobutyl)methyl)amino)-2-(2,6-dioxopiperidin-3-yl)isoindoline-1,3-dione] |  |  |  |  | 7.00 to 8.00 | > 8.00 | 7.00 to 8.00 | 7.00 to 8.00 |  | 
6 | Cc1nc(-c2cn([C@H]3C[C@H](CNc4ccc5c(c4)C(=O)N(C4CCC(=O)NC4=O)C5=O)C3)nc2C(F)F)ccc1F (stereo partly drawn) [GS-635, 5-(((trans-3-(3-(Difluoromethyl)-4-(5-fluoro-6-methylpyridin-2-yl)-1H-pyrazol-1-yl)cyclobutyl)methyl)amino)-2-(2,6-dioxopiperidin-3-yl)isoindoline-1,3-dione] |  |  |  |  | 7.00 to 8.00 | > 8.00 | 7.00 to 8.00 | > 8.00 |  | 
7 | Cc1cccc(-c2cn([C@H]3C[C@H](CNc4ccc5c(c4)C(=O)N(C4CCC(=O)NC4=O)C5=O)C3)nc2C(=O)N(C)C)n1 (stereo partly drawn) [GS-636, 1-(trans-3-(((2-(2,6-dioxopiperidin-3-yl)-1,3-dioxoisoindolin-5-yl)amino)methyl)cyclobutyl)-N,N-dimethyl-4-(6-methylpyridin-2-yl)-1H-pyrazole-3-carboxamide] |  |  |  |  | < 6.00 | < 6.00 | < 6.00 | < 6.00 |  | 
8 | CNC(=O)c1nn([C@H]2C[C@H](CNc3ccc4c(c3)C(=O)N(C3CCC(=O)NC3=O)C4=O)C2)cc1-c1cccc(C)n1 (stereo partly drawn) [GS-637, 1-(trans-3-(((2-(2,6-dioxopiperidin-3-yl)-1,3-dioxoisoindolin-5-yl)amino)methyl)cyclobutyl)-N-methyl-4-(6-methylpyridin-2-yl)-1H-pyrazole-3-carboxamide] |  |  |  |  | 7.00 to 8.00 | > 8.00 | 6.00 to 7.00 | 7.00 to 8.00 |  | 
9 | Cc1nn([C@H]2C[C@H](CCCNc3ccc4c(c3)C(=O)N(C3CCC(=O)N(C)C3=O)C4=O)C2)cc1-c1cnc2ccccc2n1 (stereo partly drawn) [GS-639, 2-(1-Methyl-2,6-dioxopiperidin-3-yl)-5-((3-(trans-3-(3-methyl-4-(quinoxalin-2-yl)-1H-pyrazol-1-yl)cyclobutyl)propyl)amino)isoindoline-1,3-dione] |  |  |  |  | < 6.00 | < 6.00 | < 6.00 | < 6.00 |  | 
10 | CCc1nc(C(N)=O)c(Nc2ccc(N3CCC(N4CCN(C)CC4)CC3)c(OC)c2)nc1NC1CCOCC1 [gilteritinib, reference compound] |  | 8.64 |  | 8.15 |  |  |  |  |  | 

More lines, main results first:

Row | pIC50 (MV4;11 cells; [3]) | pIC50 (MV4;11 cells; [4]) | pIC50 (MOLM-13 cells [1]; [5]) | pIC50 (MOLM-13 cells [1]; [6]) | pIC50 (MV4;11 cells; [7]) | pIC50 (MV4;11 cells; [8]) | pIC50 (MOLM-13 cells [1]; [9]) | pIC50 (MOLM-13 cells [1]; [10]) | Compound | Sensitivity of FLT3-mutant AML cells to GSPT1 degrader upon FLT3 inhibition (MOLM-13 cells [1]) | potency combined with gilteritinib, cell growth inhibition (MOLM-13 cells [2])
11 |  |  |  |  | 7.00 to 8.00 | > 8.00 | 6.00 to 7.00 | 7.00 to 8.00 | O=C1CCC(N2C(=O)c3ccc(NCCC[C@H]4C[C@H](n5cc(-c6nccc7cccnc67)c(C6CC6)n5)C4)cc3C2=O)C(=O)N1 (stereo partly drawn) [GS-625, 5-((3-(trans-3-(3-Cyclopropyl-4-(1,7-naphthyridin-8-yl)-1H-pyrazol-1-yl)cyclobutyl)propyl)amino)-2-(2,6-dioxopiperidin-3-yl)isoindoline-1,3-dione] |  | 
12 |  |  |  |  | 7.00 to 8.00 | 7.00 to 8.00 | < 6.00 | 7.00 to 8.00 | O=C1CCC(N2C(=O)c3ccc(NCCC[C@H]4C[C@H](n5cc(-c6nccc7[nH]ncc67)c(C6CC6)n5)C4)cc3C2=O)C(=O)N1 (stereo partly drawn) [GS-626, 5-((3-(trans-3-(3-Cyclopropyl-4-(1H-pyrazolo[4,3-c]pyridin-4-yl)-1H-pyrazol-1-yl)cyclobutyl)propyl)amino)-2-(2,6-dioxopiperidin-3-yl)isoindoline-1,3-dione] |  | 
13 |  |  |  |  | < 6.00 | < 6.00 | < 6.00 | < 6.00 | O=C1CCC(N2C(=O)c3ccc(CC[C@H]4C[C@H](n5cc(-c6cnc7ccccc7n6)c(C6CC6)n5)C4)cc3C2=O)C(=O)N1 (stereo partly drawn) [GS-627, 5-(2-(trans-3-(3-Cyclopropyl-4-(quinoxalin-2-yl)-1H-pyrazol-1-yl)cyclobutyl)ethyl)-2-(2,6-dioxopiperidin-3-yl)isoindoline-1,3-dione] |  | 
14 |  |  |  |  | < 6.00 | 7.00 to 8.00 | < 6.00 | 7.00 to 8.00 | O=C1CCC(N2C(=O)c3ccc(NCCC[C@H]4C[C@H](n5cc(-c6nccc7cnccc67)c(C6CC6)n5)C4)cc3C2=O)C(=O)N1 (stereo partly drawn) [GS-628, 5-((3-(trans-3-(3-Cyclopropyl-4-(2,6-naphthyridin-1-yl)-1H-pyrazol-1-yl)cyclobutyl)propyl)amino)-2-(2,6-dioxopiperidin-3-yl)isoindoline-1,3-dione] |  | 
15 |  |  |  |  | < 6.00 | 6.00 to 7.00 | < 6.00 | 6.00 to 7.00 | Cc1nc(-c2cn([C@H]3C[C@H](CCc4ccc5c(c4)C(=O)N(C4CCC(=O)NC4=O)C5=O)C3)nc2C2CC2)ccc1F (stereo partly drawn) [GS-629, 5-(2-(trans-3-(3-Cyclopropyl-4-(5-fluoro-6-methylpyridin-2-yl)-1H-pyrazol-1-yl)cyclobutyl)ethyl)-2-(2,6-dioxopiperidin-3-yl)isoindoline-1,3-dione] |  | 
16 |  |  |  |  | 6.00 to 7.00 | > 8.00 | < 6.00 | > 8.00 | O=C1CCC(N2C(=O)c3ccc(NCCC[C@H]4C[C@H](n5cc(-c6nccc7ccncc67)c(C6CC6)n5)C4)cc3C2=O)C(=O)N1 (stereo partly drawn) [GS-630, 5-((3-(trans-3-(3-Cyclopropyl-4-(2,7-naphthyridin-1-yl)-1H-pyrazol-1-yl)cyclobutyl)propyl)amino)-2-(2,6-dioxopiperidin-3-yl)isoindoline-1,3-dione] |  | 
17 |  |  |  |  | 6.00 to 7.00 | 6.00 to 7.00 | < 6.00 | 6.00 to 7.00 | O=C1CCC(N2C(=O)c3ccc(NC[C@H]4C[C@H](n5cc(C6CC6)c(C6CC6)n5)C4)cc3C2=O)C(=O)N1 (stereo partly drawn) [GS-632, 5-(((trans-3-(3,4-Dicyclopropyl-1H-pyrazol-1-yl)cyclobutyl)methyl)amino)-2-(2,6-dioxopiperidin-3-yl)isoindoline-1,3-dione] |  | 
18 |  |  |  |  | 7.00 to 8.00 | > 8.00 | 6.00 to 7.00 | 7.00 to 8.00 | O=C1CCC(N2C(=O)c3ccc(NC[C@H]4C[C@H](n5cc(C6CCCCC6O)c(C6CC6)n5)C4)cc3C2=O)C(=O)N1 (stereo partly drawn) [GS-634, 5-(((trans-3-(3-Cyclopropyl-4-(2-hydroxycyclohexyl)-1H-pyrazol-1-yl)cyclobutyl)methyl)amino)-2-(2,6-dioxopiperidin-3-yl)isoindoline-1,3-dione] |  | 
19 |  |  |  |  | < 6.00 | < 6.00 | < 6.00 | < 6.00 | Cc1cccc(-c2cn([C@H]3C[C@H](CNc4ccc5c(c4)C(=O)N(C4CCC(=O)NC4=O)C5=O)C3)nc2C2CCNCC2)n1 (stereo partly drawn) [GS-638, 2-(2,6-Dioxopiperidin-3-yl)-5-(((trans-3-(4-(6-methylpyridin-2-yl)-3-(piperidin-4-yl)-1H-pyrazol-1-yl)cyclobutyl)methyl)amino)isoindoline-1,3-dione] |  | 
